{"source": "patent US20250283058A1", "about": "“USE OF p55-GAMMA GENE AND/OR p55-GAMMA PROTEIN AS TARGET IN MAINTAINING CARDIAC IRON HOMEOSTASIS AND TREATING RELATED DISEASE” (BEIJING FRIENDSHIP HOSPITAL, CAPITAL MEDICAL UNIVERSITY, priority 2024, published 2025)", "key": {"[1]": {"system": "I/R injury-induced cardiac ferroptosis", "assay": "I/R injury model in mice with ferroptosis inhibitors (TTC staining, serum LDH, MDA)", "type": "in vivo", "details": "for cardiac MDA content / serum LDH concentration: mice after I/R injury; for cardiac MDA content: compared with WT mice; for serum LDH concentration / I/R-induced myocardial infarct size: effect comparable to p55γ^h-TG mice; for I/R-induced myocardial infarct size: mice, TTC staining", "description": "p55γ transgenic (p55γ^h-TG) mice were established according to routine methods in the art. Male wild-type (WT) C57 mice and p55γ^h-TG mice aged 8 to 12 weeks were selected to set up a sham operation control group and experimental groups, respectively, to construct I/R injury models. TTC staining, MDA detection, and oxidized lipid detection were conducted according to conventional methods in the art. To determine whether p55γ protein could inhibit I/R injury-induced cardiac ferroptosis, the experiments were carried out with the following groups: mice treated with saline, mice treated with Ferrostatin-1 (Fer-1) and Dexrazoxane (DXZ), and p55γ^h-TG mice. The cardiac infarction area of mice was detected by conventional TTC staining and the serum LDH concentration was assayed by LDH release kits. […] In addition, lipid peroxidation in the hearts of mice in each group was detected by intracellular MDA content assay. […] Given that the peroxidation of polyunsaturated fatty acids (PUFAs) is an important step in ferroptosis, and in order to further clarify the role of p55γ gene in ferroptosis, oxidized lipid substances in the hearts of mice from the […] group and WT-I/R group were measured using liquid chromatography-tandem mass spectrometry (LC-MS/MS)."}, "Tfr1 and IRP2": {"system": "Tfr1 and IRP2", "assay": "Western blot of Tfr1 and IRP2 after perhexiline treatment of cardiomyocytes", "type": "cell-based", "details": "24 h treatment", "description": "(§1) In view of the importance of p55γ in combating ferroptosis, it is particularly important to find potential activators of p55γ for the treatment of I/R injury. Therefore, potential activators of p55γ were predicted using existing small molecule drug libraries. Subsequently, molecular docking analysis was conducted based on the crystal structure of p55γ. […] To determine the potential role of perhexiline in cardiomyocyte ferroptosis, experiments were first done in cardiomyocytes. […] The effect of perhexiline was further tested in the context of H/R injury model."}, "cardiomyocytes (NRVMs)": {"system": "cardiomyocytes (NRVMs)", "assay": "H/R injury model in cardiomyocytes with perhexiline", "type": "cell-based", "description": "as §1"}, "[2]": {"system": "I/R injury-induced cardiac ferroptosis", "assay": "I/R injury model in mice pretreated with perhexiline (TTC staining, MDA)", "type": "in vivo", "details": "intraperitoneal injection 24 h and 2 h before I/R", "description": "p55γ knockout (p55γ^−/−) mice were established according to routine methods in the art. Male wild-type (WT) C57 mice and p55γ^−/− mice aged 8 to 12 weeks were selected to set up a sham operation control group and experimental groups, respectively, and the mice were intraperitoneally injected with perhexiline 24 h and 2 h before constructing the I/R injury model. TTC staining and MDA detection were conducted according to conventional methods in the art."}, "p55γ gene": {"system": "p55γ gene", "assay": "p55γ gene mRNA and protein levels in cardiomyocytes treated with ferroptosis inducers (qPCR, Western blot)", "type": "cell-based", "details": "NRVMs treated with ferroptosis inducer vs vehicle group", "description": "The cultured cardiomyocytes were divided into: an erastin group and a vehicle group, where the NRVMs were treated with erastin in the erastin group, while the cardiomyocytes in the vehicle group were not treated in any way. The mRNA and protein levels of p55γ gene in the two groups of cardiomyocytes were detected by conventional quantitative polymerase chain reaction (qPCR) and Western blot methods.\nThe mRNA and protein levels of p55γ gene in the two groups of cardiomyocytes were detected by conventional qPCR and Western blot methods."}, "IRP2": {"system": "IRP2", "assay": "IRP2 mRNA and protein levels in cardiomyocytes (qPCR, Western blot)", "type": "cell-based", "details": "Ad-p55γ-infected cardiomyocytes treated with MG132", "description": "To elucidate whether the p55γ gene could regulate the mRNA stability of Tfr1through the IRPs-IRE system, the expression of IRP2 in NRVMs was evaluated. Ad-p55γ was used to infect cardiomyocytes, and qPCR and Western blot were conducted to detect Ad-p55γ-infected cardiomyocytes for 48 h.\nAd-p55γ-infected cardiomyocytes were treated with MG132. […] In order to further study whether p55γ could promote the ubiquitination and degradation of IRP2, the target gene sequences of p55γ, IRP2, and UB were found in NCBI. A pcDNA3.1(+) vector was used, sequence analysis software was used to find the restriction endonuclease cleavage sites present in the target gene sequences, and plasmids for p55γ, IRP2, and […] were constructed. The plasmids were separately transfected into HEK293T cells, which were collected 24 h later and IRP2 ubiquitination was detected. Western blot was conducted to detect the ubiquitination level of IRP2."}, "[3]": {"details": "cardiomyocytes, H/R injury model"}, "[4]": {"details": "with overexpression of IRP2 (IRP2 adenovirus)"}}, "note": "Where a SMILES comes first, the peptide text is derived from it. The star is where a group is joined. Cbz = O=C(OCc1ccccc1)*"}
{"smiles": "CCOC(=O)c1ccc(NC2CCCCC2)c(N)c1", "note": "[Fer-1, Ferrostatin-1]", "values": [{"measurement": "cardiac MDA content", "setting": "[1]", "value": "significantly reduced"}, {"measurement": "serum LDH concentration", "setting": "[1]", "value": "reduced"}, {"measurement": "I/R-induced myocardial infarct size", "setting": "[1]", "value": "reduced"}]}
{"smiles": "C[C@@H](CN1CC(=O)NC(=O)C1)N1CC(=O)NC(=O)C1", "note": "[DXZ, Dexrazoxane]", "values": [{"measurement": "cardiac MDA content", "setting": "[1]", "value": "significantly reduced"}, {"measurement": "serum LDH concentration", "setting": "[1]", "value": "reduced"}, {"measurement": "I/R-induced myocardial infarct size", "setting": "[1]", "value": "reduced"}]}
{"smiles": "C1CCC(C(CC2CCCCN2)C2CCCCC2)CC1", "note": "(stereo not shown) [perhexiline]", "values": [{"measurement": "protein level of IRP2", "setting": "Tfr1 and IRP2", "value": "significantly down-regulated"}, {"measurement": "protein level of Tfr1", "setting": "Tfr1 and IRP2", "value": "significantly down-regulated"}, {"measurement": "decrease in cell activity induced by H/R injury", "setting": "cardiomyocytes (NRVMs); [3]", "value": "significantly blocked"}, {"measurement": "increase in ptgs2 mRNA levels induced by H/R injury", "setting": "cardiomyocytes (NRVMs); [3]", "value": "significantly blocked"}, {"measurement": "inhibitory effect on H/R induced decrease in cell activity", "setting": "cardiomyocytes (NRVMs); [4]", "value": "could block the inhibitory effect"}, {"measurement": "inhibitory effect on H/R induced increase in ptgs2 mRNA levels", "setting": "cardiomyocytes (NRVMs); [4]", "value": "could block the inhibitory effect"}, {"measurement": "level of MDA in the heart", "setting": "[2]; WT mice", "value": "reduce"}, {"measurement": "myocardial infarct size", "setting": "[2]; WT mice, TTC staining", "value": "significantly reduce"}, {"measurement": "cardioprotective effect (level of MDA in the heart)", "setting": "[2]; p55γ^−/− mice", "value": "abolished"}, {"measurement": "cardioprotective effect (myocardial infarct size)", "setting": "[2]; p55γ^−/− mice", "value": "abolished"}]}
{"smiles": "COC(=O)c1ccc([C@@H]2c3[nH]c4ccccc4c3C[C@@H](C(=O)OC)N2C(=O)CCl)cc1", "note": "[RSL3]", "values": [{"measurement": "protein level of p55γ gene", "setting": "p55γ gene; Western blot", "value": "down-regulated"}, {"measurement": "mRNA level of p55γ gene", "setting": "p55γ gene; qPCR", "value": "down-regulated"}]}
{"smiles": "CC(C)C[C@@H](C=O)NC(=O)[C@H](CC(C)C)NC(=O)[C@H](CC(C)C)NC(=O)OCc1ccccc1", "note": "[MG132] (Cbz-Leu-Leu-Leu-aldehyde)", "values": [{"measurement": "p55γ-mediated decrease in IRP2 protein", "setting": "IRP2", "value": "effectively eliminated"}]}
